ChEMBL document CHEMBL5518237, “Design of Novel 2-Phenylquinazolin-4-amines as Selective CYP1B1 Inhibitors for Overcoming Paclitaxel Resistance in A549 Cells” (J Med Chem, 2024)
Activity calls are given as the source filed them. No cut-off for these calls is given here.

Columns and labels:
A549 [1] = test: Inhibition of tumor metastasis in DMBA-stimulated PTX resistant human A549 cells assessed as inhibition of cell migration by measuring decrease in crawling ability of cells at 2.5 to 10 uM incubated for 48 hrs by wound healing assay; assay type: functional, cell-based; conditions: dose 2.5-10 µM
[2] = (§1) Selectivity ratio of IC50 for Inhibition of human recombinant CYP1A1 to IC50 for Inhibition of human recombinant CYP1B1; assay type: ADME; conditions: recombinant enzyme
CYP1A2 versus CYP1B1 = test: (§2) Selectivity ratio of IC50 for Inhibition of human recombinant CYP1A2 to IC50 for Inhibition of human recombinant CYP1B1; assay type: ADME; conditions: recombinant CYP1A2 and recombinant CYP1B1, read-out: Ratio IC50
Cytochrome P450 1B1 = biological target: T1, Cytochrome P450 1B1 (Homo sapiens, UniProt Q16678); test: Inhibition of human recombinant CYP1B1 using 7-ethoxyresorufin as substrate preincubated with enzyme for 5 mins followed by fluorescent substrate and NADPH addition and measured after 35 mins by EROD assay; assay type: ADME
T1 sequence (Q16678 whole entry): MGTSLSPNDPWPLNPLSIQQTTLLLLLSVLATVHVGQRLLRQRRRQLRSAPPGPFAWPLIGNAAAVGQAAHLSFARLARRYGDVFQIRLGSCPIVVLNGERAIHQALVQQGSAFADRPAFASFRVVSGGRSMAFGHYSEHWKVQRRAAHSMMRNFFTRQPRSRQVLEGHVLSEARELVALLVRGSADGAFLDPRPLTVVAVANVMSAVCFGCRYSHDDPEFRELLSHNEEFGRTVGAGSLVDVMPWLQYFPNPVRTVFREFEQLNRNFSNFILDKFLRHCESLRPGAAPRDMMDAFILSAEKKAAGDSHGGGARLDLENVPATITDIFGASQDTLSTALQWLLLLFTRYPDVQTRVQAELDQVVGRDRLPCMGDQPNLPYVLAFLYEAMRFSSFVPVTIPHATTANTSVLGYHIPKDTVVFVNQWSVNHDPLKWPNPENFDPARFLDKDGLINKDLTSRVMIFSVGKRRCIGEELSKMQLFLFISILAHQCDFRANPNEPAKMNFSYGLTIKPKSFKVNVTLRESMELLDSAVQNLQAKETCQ

[3] = Drug uptake in human A549 cells using radiolabeled compound at 0.037 MBq incubated for 120 mins by gamma-counting analysis; assay type: ADME, cell-based; conditions: a549, 2 h
Cytochrome P450 1A1 = biological target: T2, Cytochrome P450 1A1 (Homo sapiens, UniProt P04798); test: Inhibition of human recombinant CYP1A1 using 7-ethoxyresorufin as substrate preincubated with enzyme for 5 mins followed by fluorescent substrate and NADPH addition and measured after 15 mins by EROD assay; assay type: ADME
T2 sequence (P04798 whole entry): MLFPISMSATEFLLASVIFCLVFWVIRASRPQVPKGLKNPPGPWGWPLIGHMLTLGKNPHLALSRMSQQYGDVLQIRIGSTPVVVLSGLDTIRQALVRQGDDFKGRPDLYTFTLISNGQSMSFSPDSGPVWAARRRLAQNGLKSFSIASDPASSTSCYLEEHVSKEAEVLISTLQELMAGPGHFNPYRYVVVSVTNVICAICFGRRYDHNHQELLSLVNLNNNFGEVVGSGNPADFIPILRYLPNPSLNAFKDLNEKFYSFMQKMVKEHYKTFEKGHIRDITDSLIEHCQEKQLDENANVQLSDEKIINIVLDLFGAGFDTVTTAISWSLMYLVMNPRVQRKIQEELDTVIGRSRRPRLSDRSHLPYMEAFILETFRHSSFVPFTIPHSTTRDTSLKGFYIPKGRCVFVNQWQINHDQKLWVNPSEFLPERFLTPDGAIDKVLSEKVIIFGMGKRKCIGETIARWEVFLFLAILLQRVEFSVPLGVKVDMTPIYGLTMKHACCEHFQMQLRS

[4] = n-Octanol/PBS partition coefficient, log D of the radiolabeled compound at 0.37 MBq at pH 7.4 by gamma-counting analysis; assay type: physicochemical
[5] = Drug uptake in human HCT-116 cells using radiolabeled compound at 0.037 MBq incubated for 120 mins by gamma-counting analysis; assay type: ADME, cell-based; conditions: hct-116, 2 h
[6] = Drug uptake in human HEK293T cells using radiolabeled compound at 0.037 MBq incubated for 120 mins by gamma-counting analysis; assay type: ADME, cell-based; conditions: hek-293t, 2 h
Cytochrome P450 1A2 = biological target: T3, Cytochrome P450 1A2 (Homo sapiens, UniProt P05177); test: Inhibition of human recombinant CYP1A2 using 7-ethoxyresorufin as substrate preincubated with enzyme for 5 mins followed by fluorescent substrate and NADPH addition and measured after 50 mins by EROD assay; assay type: ADME
T3 sequence (P05177 whole entry): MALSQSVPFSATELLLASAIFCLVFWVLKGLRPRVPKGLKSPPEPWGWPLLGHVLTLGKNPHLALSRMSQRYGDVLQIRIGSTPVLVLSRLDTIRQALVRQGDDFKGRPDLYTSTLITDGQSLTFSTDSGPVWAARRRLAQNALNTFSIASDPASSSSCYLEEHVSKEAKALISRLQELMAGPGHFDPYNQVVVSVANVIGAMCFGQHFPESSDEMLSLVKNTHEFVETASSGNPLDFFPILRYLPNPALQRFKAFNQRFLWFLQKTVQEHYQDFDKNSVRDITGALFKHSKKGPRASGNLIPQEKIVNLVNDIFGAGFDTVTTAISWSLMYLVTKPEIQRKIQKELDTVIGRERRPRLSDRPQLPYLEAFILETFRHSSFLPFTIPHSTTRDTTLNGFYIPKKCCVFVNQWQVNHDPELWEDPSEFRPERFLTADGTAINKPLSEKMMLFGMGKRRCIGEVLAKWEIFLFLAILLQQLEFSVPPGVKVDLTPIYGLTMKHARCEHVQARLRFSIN

A549 [7] = test: Reversal of DMBA-stimulated PTX resistance in human A549 cells assessed as decrease in cell viability at 1.25 to 10 uM incubated for 24 hrs in presence of DMBA and paclitaxel by MTT assay; assay type: functional, cell-based; conditions: dose 1.25-10 µM
HEK-293T = test: Cytotoxicity against human HEK293T cells assessed as reduction in cell viability at 0.625 to 20 uM incubated for 48 hrs by MTT assay; assay type: toxicity, cell-based; conditions: dose 0.625-20 µM
A549 [8] = test: Induction of apoptosis in DMBA-stimulated PTX resistant human A549 cells assessed as apoptosis rate at 5 uM incubated for 24 hrs by flow cytometry (reference value: 6.67 +/- 1.03%); assay type: functional
[9] = as §2; assay type: ADME; conditions: recombinant enzyme
[10] = n-Octanol/water partition coefficient, logP of the compound by HPLC analysis; assay type: physicochemical
CYP1B1 [11] = biological target: T4, CYP1B1 (Homo sapiens, UniProt Q16678); test: Inhibition of human recombinant CYP1B1 using 7-ethoxyresorufin as substrate at 1 uM preincubated with enzyme for 5 mins followed by fluorescent substrate and NADPH addition and measured after 35 mins by EROD assay; assay type: ADME; conditions: recombinant CYP1B1, probe 7-ethoxyresorufin, time 40 min
T4 sequence (Q16678 whole entry): T1 sequence (Q16678 whole entry)

CYP1B1 [12] = biological target: T4, CYP1B1; test: Inhibition of human recombinant CYP1B1 using 7-ethoxyresorufin as substrate at 0.01 uM preincubated with enzyme for 5 mins followed by fluorescent substrate and NADPH addition and measured after 35 mins by EROD assay; assay type: ADME; conditions: recombinant CYP1B1, probe 7-ethoxyresorufin, time 40 min
A549 [13] = test: Cytotoxicity against human A549 cells assessed as reduction in cell viability at 0.625 to 20 uM incubated for 48 hrs by MTT assay; assay type: toxicity, cell-based; conditions: a549, 48 h, dose 0.625-20 µM
A549 [14] = test: Inhibition of tumor metastasis in DMBA-stimulated PTX resistant human A549 cells assessed as inhibition of cell migration at 10 uM incubated for 48 hrs by wound healing assay; assay type: functional, cell-based
A549 [15] = test: Reversal of DMBA-stimulated PTX resistance in human A549 cells assessed as decrease in cell viability at 10 uM incubated for 24 hrs in presence of DMBA and paclitaxel by MTT assay; assay type: functional, cell-based
A549 [16] = test: Inhibition of tumor metastasis in DMBA-stimulated PTX resistant human A549 cells assessed as inhibition of cell invasion at 10 uM incubated for 24 hrs by Transwell assay; assay type: functional, cell-based
CYP1A1 versus CYP1B1 = test: as §1; assay type: ADME; conditions: recombinant CYP1A1 and recombinant CYP1B1, read-out: Ratio IC50
[17] = n-octanol/water, read-out: logP

Row | Structure (SMILES) | inhibition (A549 [1]) | Ratio IC50 [2] | selectivity ratio (CYP1A2 versus CYP1B1) | IC50 (Cytochrome P450 1B1) | IC50 (Cytochrome P450 1A1) | IC50 (Cytochrome P450 1A2) | Activity (A549 [8]) | inhibition at 35 min, 1 µM (CYP1B1 [11]) | inhibition at 35 min, 0.01 µM (CYP1B1 [12]) | other results
1 | Nc1nc(-c2ccc(I)cc2)nc2ccccc12 | Active |  |  |  |  |  |  |  |  | 
2 | CCNc1nc(-c2ccc(I)cc2)nc2ccccc12 [listing 1 of 2 here] |  | 7.95 10^5No_unit | 4.72e+06 | 0.000205 nM | 1.63 nM | 968 nM |  |  |  | Drug uptake [3]: Active; logD ([4]; n-octanol/PBS, read-out: logD): 3.54; Drug uptake [5]: Active; Drug uptake [6]: Active
3 | CCNc1nc(-c2ccc(I)cc2)nc2ccccc12 [listing 2 of 2 here] | Active |  |  |  |  |  |  |  |  | Activity (A549 [7]): Active
4 | CNc1nc(-c2ccc(I)cc2)nc2ccccc12.Cl |  | 1.63 10^5No_unit |  | 0.000168 nM | 27.4 nM | 827 nM | 32.84% | 97.1% | 96.6% | Activity (HEK-293T): Non-Toxic; Ratio IC50 [9]: 4.92 10^6No_unit; logP ([10]; octanol/water): 3.15; Activity (A549 [13]): Non-Toxic
5 | O=c1cc(-c2ccccc2)oc2c1ccc1ccccc12 [ALPHA-NAPHTHOFLAVONE] |  |  |  |  | 86.7 nM |  | 15.53% | 95.1% | 61% | inhibition (A549 [14]): Active; Activity (A549 [15]): Active; inhibition (A549 [16]): Active
6 | Nc1nc(-c2ccc(Br)cc2)nc2ccccc12 |  |  | 4060 | 0.49 nM | 104 nM | 1990 nM |  | 96.4% | 82.7% | selectivity ratio (CYP1A1 versus CYP1B1): 211; logP [10, 17]: 2.12
7 | CNc1nc(-c2ccc(I)cc2)nc2ccccc12 [listing 1 of 2 here] |  | 3.54 10^4No_unit |  | 0.000747 nM | 26.5 nM | 1110 nM |  |  |  | Ratio IC50 [9]: 1.49 10^6No_unit; Drug uptake [3]: Active; logD ([4]; octanol/water): 3.55; Drug uptake [5]: Active; Drug uptake [6]: Active
8 | Cl.Nc1nc(-c2ccc(I)cc2)nc2ccccc12 |  | 617.5 | 101000 | 0.02 nM | 12.3 nM | 2030 nM | 18.53% | 96.7% | 94.5% | logP ([10]; octanol/water): 2.71
9 | Cl.FCCNc1nc(-c2ccc(I)cc2)nc2ccccc12 |  |  | 4030 | 0.15 nM | 33.2 nM | 604 nM | 21.05% | 95.5% | 90.1% | selectivity ratio (CYP1A1 versus CYP1B1): 221; Activity (HEK-293T): Non-Toxic; logP [10, 17]: 3.91; Activity (A549 [13]): Non-Toxic
10 | CCNc1nc(-c2ccc(I)cc2)nc2ccccc12.Cl |  | 2.07 10^6No_unit |  |  | 85.8 nM | 1500 nM | 26.15% | 95.2% | 93.7% | Activity (HEK-293T): Non-Toxic; logP [10, 17]: 3.81; Activity (A549 [13]): Non-Toxic
11 | FCCNc1nc(-c2ccc(I)cc2)nc2ccccc12 [listing 1 of 2 here] |  | 151.87 |  | 0.24 nM | 36.7 nM | 727 nM |  |  |  | Ratio IC50 [9]: 3029.17; Drug uptake [3]: Active; logD ([4]; n-octanol/PBS, read-out: logD): 3.34; Drug uptake [5]: Active; Drug uptake [6]: Active
12 | FCCNc1nc(-c2ccc(I)cc2)nc2ccccc12 [listing 2 of 2 here] | Active |  |  |  |  |  |  |  |  | Activity (A549 [7]): Active
13 | CNc1nc(-c2ccc(I)cc2)nc2ccccc12 [listing 2 of 2 here] | Active |  |  |  |  |  |  |  |  | Activity (A549 [7]): Active
